Experimental data: paper PMC7329800, “Reduction of the serotonin 5-HT1B and 5-HT2A receptor-mediated contraction of human pulmonary artery by the combined 5-HT1B receptor antagonist and serotonin transporter inhibitor LY393558” (Pharmacological Reports, 2020)
Values joined by “and” are separate entries in the source; they are usually repeats but may differ in a detail not shown here. Equal entries are not always repeated. Where two headings read alike, the source gives them in different places.

How the values were obtained:
[1] = test system: human pulmonary arteries; assay: Contraction of isolated human pulmonary arteries by agonists alone (organ bath, cumulative concentration-response curves); assay type: cell-based; conditions: for EC50 / Emax: Homo sapiens
Procedure: (§1) Lung tissue was received from 29 men and 5 women (mean age 65 ± 2 years) with lung carcinoma (without PAH) undergoing lobectomy or pneumonectomy. Before the operation, they received cephalosporins and heparin as anti-infection and antithrombotic prophylaxis, respectively. Isolation of hPAs has been described previously. When necessary, endothelium was disrupted by rubbing of the lumen with horse hair. Arterial rings (3–5 mm in length and 2–4 mm in outer diameter) were mounted in 10 ml organ baths containing Tyrode’s solution [17] gassed with 95% O2 and 5% CO2 (37 °C, pH 7.4). Resting tension ranged from 19.6 to 24.5 mN (equivalent to transmural pressure of ~ 16 mmHg). Muscle tension was recorded by a force displacement transducer (BIO-SYS-TECH). After equilibration, rings were exposed to high KCl (60 mM) Tyrode’s solution (equimolar substitution of NaCl by KCl) to check tissue viability and maximum contraction and to phenylephrine (1 µM) followed by acetylcholine (10 µM) to verify if the endothelium is intact. […]. Concentrations of antagonists and citalopram were taken from previous studies. In each preparation, only one experimental curve was determined.
(§2) Results are given as mean ± SEM from n patients. Contractile responses were shown as percentages of the response to KCl 60 mM. GraphPad Prism 5.0 software was used to plot the mean data as sigmoidal CRCs. CRCs were used to determine potency (pEC50) and maximal effect (Emax) of agonists.

[2] = test system: human pulmonary arteries; parameters: method as in PMID 19541711; conditions: hPAs, other studies; cited from earlier work
[3] = test system: human pulmonary arteries; assay: Influence of antagonists/inhibitors on 5-HT-induced vasoconstriction of isolated human pulmonary arteries; assay type: cell-based; conditions: for rightward shift of the CRC for 5-HT (factor): ketanserin 0.1 µM, SB224289 0.2 µM, GR55562 1 µM
Procedure: as §1, §2

[4] = target: T1, 5-HT2AR (Homo sapiens, UniProt P28223); assay: Influence of antagonists on α-methyl-5-HT-induced vasoconstriction of isolated human pulmonary arteries; assay type: cell-based; conditions: for Tension (contractile response to α-methyl-5-HT in absolute terms): α-methyl-5-HT in presence of ketanserin 0.01 μM or LY393558 0.1 μM, control α-methyl-5-HT (DMSO)
T1 construct: Arterial rings (3–5 mm in length and 2–4 mm in outer diameter) were mounted in 10 ml organ baths; from tissue; host or cells: human pulmonary artery rings from lung tissue removed at lobectomy or pneumonectomy
T1 sequence (P28223 whole entry): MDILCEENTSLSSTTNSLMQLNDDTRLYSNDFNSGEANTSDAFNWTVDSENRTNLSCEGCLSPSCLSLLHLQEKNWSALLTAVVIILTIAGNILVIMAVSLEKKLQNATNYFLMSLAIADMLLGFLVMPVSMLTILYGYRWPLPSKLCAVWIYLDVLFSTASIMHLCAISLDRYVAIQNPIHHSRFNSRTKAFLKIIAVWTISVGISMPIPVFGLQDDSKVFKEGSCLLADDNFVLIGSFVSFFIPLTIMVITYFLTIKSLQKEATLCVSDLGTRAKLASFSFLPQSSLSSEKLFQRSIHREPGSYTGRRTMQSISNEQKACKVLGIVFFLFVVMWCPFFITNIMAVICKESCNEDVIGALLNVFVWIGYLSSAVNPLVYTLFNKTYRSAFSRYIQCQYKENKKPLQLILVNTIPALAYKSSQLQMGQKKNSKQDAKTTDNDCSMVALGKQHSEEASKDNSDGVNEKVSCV
Procedure: (§3) Lung tissue was received from 29 men and 5 women (mean age 65 ± 2 years) with lung carcinoma (without PAH) undergoing lobectomy or pneumonectomy. Before the operation, they received cephalosporins and heparin as anti-infection and antithrombotic prophylaxis, respectively. Isolation of hPAs has been described previously. When necessary, endothelium was disrupted by rubbing of the lumen with horse hair. […] Muscle tension was recorded by a force displacement transducer (BIO-SYS-TECH). After equilibration, rings were exposed to high KCl (60 mM) Tyrode’s solution (equimolar substitution of NaCl by KCl) to check tissue viability and maximum contraction and to phenylephrine (1 µM) followed by acetylcholine (10 µM) to verify if the endothelium is intact. […] Concentrations of antagonists and citalopram were taken from previous studies. In each preparation, only one experimental curve was determined.
as §2

[5] = target: T2, 5-HT1B/1DR (Homo sapiens, UniProt P28222); assay: Influence of antagonists on 5-CT-induced vasoconstriction of isolated human pulmonary arteries; assay type: cell-based; conditions: 5-CT in presence of SB224289 0.2 μM, GR55562 1 μM or LY393558 0.1 μM; control 5-CT (DMSO)
T2 construct: Arterial rings (3–5 mm in length and 2–4 mm in outer diameter) were mounted in 10 ml organ baths; from tissue; host or cells: human pulmonary artery rings from lung tissue removed at lobectomy or pneumonectomy
T2 sequence (P28222 whole entry): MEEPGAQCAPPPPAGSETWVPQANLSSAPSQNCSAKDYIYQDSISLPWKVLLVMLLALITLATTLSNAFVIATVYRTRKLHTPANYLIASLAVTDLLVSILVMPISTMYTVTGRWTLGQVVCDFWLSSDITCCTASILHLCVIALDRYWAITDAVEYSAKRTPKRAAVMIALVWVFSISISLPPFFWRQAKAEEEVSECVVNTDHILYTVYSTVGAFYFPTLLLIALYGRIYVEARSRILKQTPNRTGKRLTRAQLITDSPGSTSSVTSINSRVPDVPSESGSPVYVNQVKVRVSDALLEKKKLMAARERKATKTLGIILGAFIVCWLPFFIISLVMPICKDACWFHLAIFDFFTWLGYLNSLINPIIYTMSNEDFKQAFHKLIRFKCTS
Procedure: as §3, with “(BIO-SYS-TECH).” for “(BIO-SYS-TECH). After equilibration, rings were exposed to high KCl (60 mM) Tyrode’s solution (equimolar substitution of NaCl by KCl) to check tissue viability and maximum contraction and to phenylephrine (1 µM) followed by acetylcholine (10 µM) to verify if the endothelium is intact.”
as §2

[6] = target: T3, thromboxane A2 (TP) receptor (Homo sapiens, UniProt P21731); assay: Influence of LY393558 on U46619-induced vasoconstriction of isolated human pulmonary arteries; assay type: cell-based
T3 construct: Arterial rings (3–5 mm in length and 2–4 mm in outer diameter) were mounted in 10 ml organ baths; from tissue; host or cells: human pulmonary artery rings from lung tissue removed at lobectomy or pneumonectomy
T3 sequence (P21731 1-343): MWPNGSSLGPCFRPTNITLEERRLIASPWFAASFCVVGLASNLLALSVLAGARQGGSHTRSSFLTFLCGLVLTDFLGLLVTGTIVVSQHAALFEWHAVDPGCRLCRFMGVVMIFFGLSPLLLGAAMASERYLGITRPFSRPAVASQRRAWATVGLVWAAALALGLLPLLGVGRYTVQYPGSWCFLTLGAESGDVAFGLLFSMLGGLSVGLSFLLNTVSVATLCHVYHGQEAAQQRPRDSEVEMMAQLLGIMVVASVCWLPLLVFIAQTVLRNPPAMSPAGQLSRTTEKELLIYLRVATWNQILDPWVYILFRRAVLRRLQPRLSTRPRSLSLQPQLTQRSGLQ
Procedure: as §1
(§4) Results are given as mean ± SEM from n patients. Contractile responses were shown as percentages of the response to KCl 60 mM. GraphPad Prism 5.0 software was used to plot the mean data as sigmoidal CRCs. […]

[7] = test system: α1-adrenoceptor; assay: Influence of LY393558 on phenylephrine-induced vasoconstriction of isolated human pulmonary arteries; assay type: cell-based
Procedure: as §1, §4

[8] = target: SERT; conditions: cited from earlier work
[9] = target: 5-HT2ARs; parameters: method as in PMID 11734182; conditions: read-out: pKi at 5-HT2ARs (converted); cited from earlier work
[10] = agonist alone, DMSO vehicle control, endothelium-intact hPAs
[11] = agonist alone, endothelium removed (-ENDO)
[12] = agonist alone, endothelium-intact hPAs
[13] = 5-HT in presence of: citalopram 1 μM, SB224289 0.2 μM, GR55562 1 μM, ketanserin 0.1 μM or combinations, 45 min incubation, endothelium-intact
[14] = SB224289 0.2 μM, GR55562 1 μM, ketanserin 0.1 μM, endothelium-intact
[15] = agonist alone (control of LY393558 experiment, Fig. 3), endothelium-intact hPAs

SMILES: NCCc1c[nH]c2ccc(C(N)=O)cc12 [5-CT, 5-carboxamidotryptamine]
- Emax (percentage of the response to 60 mM KCl) [1, 10]: 73 ± 6%
- Tension (contractile response in absolute terms) [1, 10]: 8.0 ± 1.0 mN
- pEC50 [1, 10]: 6.36 ± 0.09
- efficacy lower than that of 5-HT ([1]; hPAs, this study): 20%
- efficiency less than that of 5-HT [2]: 50%

SMILES: NCCc1c[nH]c2ccc(O)cc12 [5-HT, serotonin]
- EC50 [1, 10]: 457 nM
- EC50 [1, 11]: 1700 nM
- EC50 [1, 12]: 631 nM
- Emax ([1]; read-out: Emax (percentage of the response to 60 mM KCl), agonist alone, DMSO vehicle control, endothelium-intact hPAs): 82 ± 4%
- Emax ([1]; read-out: Emax (percentage of the response to 60 mM KCl), agonist alone, endothelium removed (-ENDO)): 92 ± 4%
- Emax ([1]; read-out: Emax (percentage of the response to 60 mM KCl), agonist alone, endothelium-intact hPAs): 94 ± 4%
- Tension (contractile response in absolute terms) [1, 10]: 8.5 ± 1.8 mN
- Tension (contractile response in absolute terms) [1, 11]: 9.4 ± 1.2 mN
- Tension (contractile response in absolute terms) [1, 12]: 9.7 ± 1.0 mN

SMILES: CN(C)CCCC1(c2ccc(F)cc2)OCc2cc(C#N)ccc21 (stereo not drawn) [Citalopram]
- Tension (contractile response to 5-HT in absolute terms) ([3]; 5-HT + citalopram 1 μM, endothelium removed (-ENDO)): 7.6 ± 1.3 mN
- Tension (contractile response to 5-HT in absolute terms) [3, 13]: 8.9 ± 1.3 mN
- influence on the potency of 5-HT ([3]; citalopram 1 µM, endothelium-denuded preparations): enhanced the potency of 5-HT
- influence on the CRC for 5-HT ([3]; citalopram 1 µM, endothelium-intact hPAs): did not influence the CRC for 5-HT

SMILES: CN(C)CCCc1cc(C(=O)Nc2ccc(-c3ccncc3)cc2)ccc1O [GR55562]
- Tension (contractile response to 5-HT in absolute terms) [3, 13]: 7.2 ± 2.0 mN
- pA2 against 5-HT [3, 14]: 6.6 and 6.63
- rightward shift of the CRC for 5-HT (factor) [3]: 5

SMILES: O=C(c1ccc(F)cc1)C1CCN(CCn2c(=O)[nH]c3ccccc3c2=O)CC1 [Ketanserin, ketanserin]
- Tension (contractile response to 5-HT in absolute terms) [3, 13]: 7.7 ± 1.2 mN
- pA2 against 5-HT [3, 14]: 7.40
- pA2 against 5-HT ([3]; SB224289 0.2 μM, GR55562 1 μM, ketanserin 0.1 μM, endothelium-intact, listed as ketanserin): 7.4
- rightward shift of the CRC for 5-HT (factor) [3]: 3
- vasoconstriction induced by α-methyl-5-HT diminished by ([4]; LY393558, ketanserin 0.01 µM (Discussion)): 30%
- Tension (contractile response to α-methyl-5-HT in absolute terms) [4]: 9.7 ± 2.3 mN

SMILES: CC(C)N1Cc2cc(S(C)(=O)=O)ccc2N(CCN2CC=C(c3c[nH]c4cc(F)ccc34)CC2)S1(=O)=O [LY393558]
- Tension (contractile response to 5-HT in absolute terms) ([3]; 5-HT + LY393558 0.1 μM, control 5-HT (DMSO), endothelium-intact): 9.1 ± 1.7 mN
- pA2 against 5-HT ([3]; LY393558 0.1 μM, control 5-HT (DMSO), endothelium-intact): 8.3 and 8.25
- Tension (contractile response to 5-CT in absolute terms) [5]: 7.3 ± 2.0 mN
- Tension (contractile response to α-methyl-5-HT in absolute terms) [4]: 10.5 ± 2.4 mN
- effect on the vasoconstrictory effects of U46619 ([6]; LY393558 0.1 µM): did not modify
- pA2 at human TP receptors ([6]; from lack of effect of 0.1 µM on U46619 response): < 7.0
- effect on the vasoconstrictory effects of phenylephrine ([7]; LY393558 0.1 µM): did not modify
- pA2 at human α1 receptors ([7]; from lack of effect of 0.1 µM on phenylephrine response): < 7.0
- Ki ([8]; read-out: Ki (SERT inhibition)): ~1 nM
- Ki [9]: ~100 nM

SMILES: Cc1nc(-c2ccc(-c3ccc(C(=O)N4CCc5cc6c(cc54)C4(CCN(C)CC4)CO6)cc3)c(C)c2)no1 [SB224289]
- Tension (contractile response to 5-HT in absolute terms) [3, 13]: 7.0 ± 1.9 mN
- pA2 against 5-HT [3, 14]: 7.0 and 7.02
- Tension (contractile response to 5-CT in absolute terms) [5]: 10.0 ± 3.3 mN
- affinity for the SERT [8]: has no affinity for the SERT

SMILES: CCCCC[C@H](O)/C=C/[C@@H]1[C@@H](C/C=C\CCCC(=O)O)[C@H]2CO[C@@H]1C2 [U46619]
- Emax (relative to the KCl-induced response) [1, 15]: 109 ± 6%
- pEC50 [1, 15]: 8.60 ± 0.10

SMILES: CNC[C@H](O)c1cccc(O)c1 [phenylephrine, (–)-phenylephrine]
- EC50 [1, 15]: 3160 nM
- Emax ([1]; agonist alone (control of LY393558 experiment, Fig. 3), endothelium-intact hPAs, read-out: Emax (relative to the KCl-induced response)): 68 ± 5%

SMILES: CC(N)Cc1c[nH]c2ccc(O)cc12 (stereo not drawn) [α-Methyl-5-HT, α-methyl-5-HT]
- Emax (percentage of the response to 60 mM KCl) [1, 10]: 79 ± 5%
- Tension (contractile response in absolute terms) [1, 10]: 10.5 ± 1.0 mN
- pEC50 [1, 10]: 5.89 ± 0.08
